Experimental data reported in patent publication US9910031B2, “Compositions and methods for modulating c-Rel-dependent cytokine production” (Synta Pharmaceuticals Corporation, priority 2003, dated 2018).

How the values were obtained:
[1] = test system: IL-12 p40 mRNA; test: Northern blot of IL-12 p40 mRNA in IFN-γ/SAC-stimulated THP-1 cells; format: cell-based, human; conditions: THP-1, IFN-γ/SAC, 1 μM Compound 1
Procedure: Northern blot analysis was performed to examine the mRNA levels of IL-12 p35 and p40. Human PBMC and the human monocyte cell line THP-1 cells were stimulated with IFN-γ/SAC in the presence or absence of Compound 1. Human PBMC were isolated by centrifugation using Ficoll-Paque (Pharmacia Biotech, Uppsala, Sweden) and prepared in RPMI medium supplemented with 10% fetal calf serum (FCS), 100 U/ml penicillin, and 100 μg/ml streptomycin, in a 96-well plate with 5×10^5 cells/well. The cells were then primed with IFN-γ (100 U/ml) and followed by 0.01% SAC or 1 μg/ml LPS, in the presence of different concentrations of Compound 2 or other compounds. The test compounds were prepared in DMSO and the final DMSO concentration was adjusted to 0.25% in all cultures, including the compound-free control. Cell-free supernatants were taken 18 h later for the measurement of cytokines. The THP-1 cells were obtained from American Type Culture Collection (Manassas, Va.) and were cultured in RPMI 1640 (ATCC, Manassas, Va.), supplemented with 10% FCS (ATCC, Manassas, Va.), and 1% penicillin/Streptomycin (Gibco-BRL, New York, N.Y.). Total RNA was isolated and subjected to Northern blot analysis using IL-12 p35 and p40 cDNA probes. We first examined the kinetics of mRNA accumulation in cultures of hPBMC and THP-1 cells primed with IFN-γ followed by SAC stimulation in the presence or absence of 1 μM Compound 1.

[2] = test system: IL-12 p40; test: IL-12 p40 production in human monocyte-derived dendritic cells; format: cell-based; conditions: up to 10 μM
Procedure: Although c-Rel has a role in the expression of both p35 and p40 in monocytes and macrophages as well as p35 in dendritic cells (DCs), p40 expression in dendritic cells is c-Rel-independent (Grumont et al. J. Exp. Med. 2001; 194:1021-1031). If Compound 2 is acting through c-Rel, this drug should inhibit both p40 and p70 production by PBMCs. However, Compound 2 should inhibit the production of p70 (through inhibition of p35) in DCs, but should not inhibit p40 in DCs. This was tested by generating monocyte-derived dendritic cells according to the following method. Human PBMC at 1×10^7 cells/ml were suspended in serum-free DMEM and incubated for 2 hrs at 37° C. under 5% CO2. The non-adherent cells then were removed by washing with PBS. The adherent cells were cultured in RPMI-1640 medium containing rhIL-4 (100 U/ml) and rhGM-CSF (1000 U/ml) for 6-7 days. The half volume fresh media and full-volume fresh cytokines were added every other day. The cells were then primed with IFN-γ (100 U/ml) and followed by 0.01% SAC or 1 μg/ml LPS, in the presence of different concentrations of Compound 2 or other compounds. The test compounds were prepared in DMSO and the final DMSO concentration was adjusted to 0.25% in all cultures, including the compound-free control. Cell-free supernatants were taken 18 h later for the measurement of cytokines.

[3] = test system: c-Rel; test: ELISA based transcriptional factor-DNA binding activity assay, THP-1 nuclear extracts, c-Rel; format: cell-based, human; conditions: IFN-γ/LPS, 500 nm, 3 hrs
Procedure: Nuclear extracts were prepared from IFN-γ-primed THP-1 cells that had been treated with or without SAC and incubated in the presence or absence of 1 μM Compound 1 or 10 mM ASA. Isolation of nuclear extracts was accomplished by first suspending THP-1 cells in 20 volumes of buffer A containing 10 mM KCl, 10 mM HEPES (pH 7.9), 1 mM MgCl2, 1 mM dithiothreitol (DTT), 0.1% Nonidet p40 (NP-40), and 0.5 mM phenylmethylsulfonyl fluoride (PMSF) and then homogenizing and centrifuging at 10,000 rpm at 4° C. for 5 min. Nuclear pellets were then suspended in buffer C containing 400 mM NaCl, 20 mM HEPES pH 7.9), 15 mM MgCl2, 0.2 mM EDTA, 1 mM DTT, 25% glycerol, 1 mM PMSF, and 10 μg of leupeptin, 20 μg of pepstatin, and 10 μg of antipain per ml, incubated for 30 min at 4° C., and centrifuge at 14,000 rpm for […]. The supernatants were dialyzed against buffer D containing 100 mM NaCl, 20 mM HEPES (pH 7.9), 20% glycerol, 1 mM PMSF, and 1 mM DTT.
To understand the action of Compound 2 in NF-κB binding, several NF-κB family members, p50, c-Rel and p65 were investigated using an ELISA based transcriptional factor-DNA binding activity assay system. […]

Row | SMILES | expression of the p40 message [1] | p40 production in human DCs [2] | binding activity of c-Rel [3]
1 | C(=NNc1nc(OCCc2ccccn2)nc(N2CCOCC2)n1)c1c[nH]c2ccccc12 [Compound 1, N-(1H-indol-3-ylmethylene)-N′-[4-morpholin-4-yl-6-(2-pyridin-2-yl-ethoxy)-[1,3,5]triazin-2-yl]-hydrazine] | significantly but incompletely reduced | – | –
2 | Cc1cccc(C=NNc2cc(N3CCOCC3)nc(OCCc3ccccn3)n2)c1 [Compound 2, N-(3-methyl-benzylidene)-N′-[6-morpholin-4-yl-2-(2-pyridin-2-yl-ethoxy)-pyrimidin-4-yl]-hydrazine] | – | no inhibition | significantly decreased
